Data from patent US5057427A, “Method for resolution of stereoisomers” (Sepracor, Inc., priority 1988, dated 1991).
In brackets after ≈: the same amount, converted by molar mass. Structures can show the parent of a compound that is named as a salt.

What was measured:
[1] = target: T1, Protease XXVII: "Nagarse" (Enzyme D) (Bacillus amyloliquefaciens, UniProt P00782); experiment: Homogeneous aqueous enzymatic resolution (ester hydrolysis) with Enzyme D; type: biochemical; conditions: 100 mg enzyme D, 10 mmol ester in 100 ml 0.2 M phosphate buffer pH 7.0, 20-22° C., 20 hours
T1 sequence (P00782 108-382): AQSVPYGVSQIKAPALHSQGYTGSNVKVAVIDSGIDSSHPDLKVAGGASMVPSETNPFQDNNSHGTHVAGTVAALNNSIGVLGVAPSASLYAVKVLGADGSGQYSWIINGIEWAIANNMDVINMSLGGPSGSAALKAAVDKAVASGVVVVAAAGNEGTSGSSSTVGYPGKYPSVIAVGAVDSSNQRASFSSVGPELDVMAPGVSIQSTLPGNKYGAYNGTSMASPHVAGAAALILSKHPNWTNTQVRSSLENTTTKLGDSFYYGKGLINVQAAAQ

[2] = target: T2, Protease VIII: "Subtilopeptidase A" (subtilisin Carlsberg) (Enzyme B) (Bacillus licheniformis, UniProt P00780); experiment: Homogeneous aqueous enzymatic resolution (ester hydrolysis) with Enzyme B; type: biochemical; conditions: 100 mg enzyme B, 10 mmol ester in 100 ml 0.2 M phosphate buffer pH 7.0, 20-22° C., 20 hours
T2 sequence (P00780 106-379): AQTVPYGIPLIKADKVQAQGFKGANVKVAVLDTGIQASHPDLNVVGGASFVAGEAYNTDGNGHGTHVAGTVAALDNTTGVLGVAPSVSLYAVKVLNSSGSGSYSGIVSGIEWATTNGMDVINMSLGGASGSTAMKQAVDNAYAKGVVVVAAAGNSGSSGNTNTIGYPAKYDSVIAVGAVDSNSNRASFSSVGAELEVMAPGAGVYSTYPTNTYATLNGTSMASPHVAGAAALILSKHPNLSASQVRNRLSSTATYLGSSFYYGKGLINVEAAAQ

[3] = tested on: protease Prozyme 6 (Enzyme F); experiment: Homogeneous aqueous enzymatic resolution (ester hydrolysis) with Enzyme F; type: biochemical, Asperqillus oryzae; conditions: 100 mg protease (F), 3.22 gm ester in 100 ml 0.2 M sodium phosphate buffer pH 7.0, room temperature, 20 hours
Description: (Prozyme 6) (F) added. The enzymatic reaction mixtures were capped and briefly shaken until all the substrate had dissolved, and the enzyme had completely dissolved or dispersed. […] Evaporation of the ether left a white solid. Rotations were measured at c=1 in CHCl3.
The enzymatic reaction mixtures were capped and briefly shaken until all the substrate had dissolved, and the enzyme had completely dissolved or dispersed. […] Evaporation of the ether left a white solid. Rotations were measured at c=1 in CHCl3.
The reaction was started by adding 100 mg of the protease (F) from the fungus Asperqillus oryzae (from Amano Enzyme Corporation, Prozyme 6, 60,000 units per mg of solid).
After 20 hours at room temperature, the solution was acidified to pH 2 and extracted with 3 volumes of diethyl ether. The aqueous phase was saved for subsequent workup. The ether phase was washed with two volumes of distilled water and then one volume of saturated sodium chloride, and then it was dried over MgSO4 and subsequently evaporated to dryness. The resolved ibuprofen product recovered was 930 mg of white powder, indicating 45% conversion of racemic ester to acid. The optical rotation was -0.580° (measured at c=1 in ethanol), indicating the R isomer of ibuprofen.
35 mg of protease Enzyme F, as the commercial preparation Prozyme 6, were added to the aqueous solution. The reaction flask was capped, and briefly shaken until all the enzyme had dissolved or dispersed. […] The resulting mixture was diluted with one volume of water and was extracted with diethyl ether (2 times 200 ml). The ether layers were combined and backwashed with water (2 times 200 ml), saturated NaCl solution (200 ml), and then dried over MgSO4.
In this control run, a 0.5 M ester solution of (1) was prepared in 325 ml of 0.1 M sodium phosphate buffer (pH 7.0). The reaction was started by adding 3 gm of the above enzyme (F). The pH was controlled at 7.0 with 8.22 M sodium hydroxide. After 6.49 hours at 30° C., 6.63 ml of hydroxide were added, indicating 37.7% conversion. […]

[4] = tested on: protease Prozyme 6 (Enzyme F); experiment: Asymmetric hydrolysis in an extractive dispersion reactor (hexane) with Enzyme F; type: biochemical, Asperqillus oryzae; conditions: 100 mg Prozyme 6, 3.38 gm ester in 100 ml 0.2 M sodium phosphate buffer pH 7.0 and 100 ml hexane, room temperature, 3.5 hours
Description: In this Example, the hexane was dispersed in the reaction vessel to extract the inhibitory ibuprofen acid as it is formed. The reaction was started by adding 100 mg of the protease from the fungus Asperqillus oryzae (from Amano Enzyme Corporation, Prozyme 6, 60,000 units per mg of solid).
After 3.5 hours at room temperature with vigorous stirring, the solution was acidified to pH 2 and extracted with 2 volumes of hexane. The aqueous phase was saved for subsequent workup. The hexane phase was dried over MgSO4 and evaporated to dryness. The resolved ibuprofen product so recovered consisted of 490 mg of white powder, indicating 24% conversion. The optical rotation was -0.568° (c=1.015 in ethanol), indicating the R isomer of ibuprofen.

[5] = target: T3, Protease XVI: from Bacillus subtilis (Enzyme C) (Bacillus subtilis, UniProt P04189); experiment: Homogeneous aqueous enzymatic resolution (ester hydrolysis) with Enzyme C; type: biochemical; conditions: acid product; 100 mg enzyme C, 10 mmol ester in 100 ml 0.2 M phosphate buffer pH 7.0, 20-22° C., 20 hours
T3 sequence (P04189 107-381): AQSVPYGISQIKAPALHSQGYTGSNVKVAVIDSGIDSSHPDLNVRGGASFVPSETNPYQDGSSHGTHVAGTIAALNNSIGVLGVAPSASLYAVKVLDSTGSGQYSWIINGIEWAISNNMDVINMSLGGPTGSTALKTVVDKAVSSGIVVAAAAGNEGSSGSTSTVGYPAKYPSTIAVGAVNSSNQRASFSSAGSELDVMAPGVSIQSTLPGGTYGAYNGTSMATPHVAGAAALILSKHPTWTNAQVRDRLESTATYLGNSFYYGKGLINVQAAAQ

[6] = tested on: Protease XXIII: from Aspergillus oryzae (Enzyme A); experiment: Homogeneous aqueous enzymatic resolution (ester hydrolysis) with Enzyme A; conditions: 100 mg enzyme A, 10 mmol ester in 100 ml 0.2 M phosphate buffer pH 7.0, 20-22° C., 20 hours
Description: 10.0 millimole (mmol) of ibuprofen substrate ester 1 (the methyl sulfonate derivative) was dissolved in 100 ml of 0.2 M phosphate buffer of the appropriate cation (sodium or potassium, to be the same as the substrate counterion) at pH 7.0. 100 mg of enzyme A, as the
commercial preparation, was added directly to this solution, and the reaction mixture was capped and then shaken briefly until all the enzyme preparation had dispersed or dissolved. The reaction mixture was then allowed to stand at ambient temperature (20°-22° C.) for 20 hours. […] The combined organic layers were backwashed twice with one volume of water, once with one volume of saturated NaCl solution, and then dried over MgSO4.
Evaporation of the ether under reduced pressure left the resolved ibuprofen acid product; no other purification was performed. The optical rotation was measured in EtOH at a concentration c=1.0 for the ibuprofen acid product.
In this Example, 0.010 mol of ibuprofen ester 3 (the propyl sulfonate derivative) was dissolved in 100 ml 0.2 M sodium phosphate buffer at pH 7.8, and 150 mg of the commercial enzyme A preparation was added. The reaction was then handled as described for Examples 6.2.1.1-6.2.1.7.
In this Example, 0.010 mol of ibuprofen ester 2 (the ethyl sulfonate ester in the form of its potassium salt) were dissolved in 125 ml of 0.2 M sodium phosphate buffer at pH 7.0, and 150 mg of enzyme A was added to the reaction mixture as the commercially supplied preparation. The reaction was allowed to proceed for 18 hours, and the resulting product mixture was then worked-up as described above for Examples 6.2.1.1-6.2.1.7.
150 mg of Protease XXIII (A), as the commercially available preparation, was added to the reaction mixture, the reaction vessel was capped, and the entire heterogeneous reaction mixture was shaken in a wrist-action shaker for 18 hours. […] This mixture was then extracted twice with 200 ml of diethyl ether. The combined organic layers were backwashed twice with one volume of water, once with one volume of saturated NaCl, and the organic phase was then dried over MgSO4. Evaporation of the ether under reduced pressure left the resolved naproxen acid. No further purification was performed. The optical rotation of the product was measured in CHCl3 at a concentration c=1.0.
0.010 mol of naproxen ester 8 (the potassium salt of the ethyl sulfonate ester) was dispersed in 125 ml of 0.2 M sodium phosphate buffer at pH 7.8. 150 mg of enzyme A, as the commercially available preparation, were added, and the reaction handled as described in Example 6.2.1.1.
0.010 mol of ibuprofen ester 6 (the compound) were dissolved in 100 ml of 0.2 M sodium phosphate buffer at pH 7.0. 100 mg of enzyme A was added as the commercially available preparation, and the reaction handled as described above in Examples 6.2.1.1-6.2.1.7.
2.0 gm (0.0058 mole) of naproxen ester 9 (the sulfomethyl compound) was dissolved in 400 ml of 50 mM sodium phosphate buffer at pH 7.5. To the reaction were added 100 mg of Protease XXIII (A) as the commercially available preparation. After the enzyme had dissolved, the reaction mixture was incubated at 25 degrees for 16 hours. The reaction mixture was then acidified to pH 1-2 by the careful dropwise addition of concentrated HCl, and then it was extracted with ether (3×150 ml). The aqueous layer was retained. The combined organic layers were backwashed with water (2×100 ml), and these aqueous washings were added to the previously retained aqueous layer of the reaction. The ether layer was then washed once with 100 ml of brine, and dried over MgSO4.

[7] = target: T2, Protease VIII: "Subtilopeptidase A" (subtilisin Carlsberg) (Enzyme B); experiment: Rates of hydrolysis of the two enantiomers (pH stat), Enzyme B; type: biochemical; conditions: 50 mM ester, 50 mM buffer pH 7.6, 0.1 ml of 50 mg/ml enzyme B
Description: (§1) 15 ml of a solution containing one enantiomer of the ester at a concentration of 50 mM, and Na buffer at 50 mM and pH 7.6 was observed using a pH stat device. 0.1 ml of a 50 mg/ml solution of enzyme B, made up from the commercially available preparation in 50 mM Na buffer at pH 7.6, were added. Rates of hydrolysis of both enantiomers of the ester compound were determined for the enzyme. The ratio of the rates of hydrolysis for the two enantiomers for the two enantiomers with respect to the enzyme indicate the stereospecificity of that enzyme's hydrolytic action on the racemic mixture of the ester. No evidence for the hydrolysis of the acetylthio ester portion of the substrate molecule was found.

[8] = target: T1, Protease XXVII: "Nagarse" (Enzyme D); experiment: Rates of hydrolysis of the two enantiomers (pH stat), Enzyme D; type: biochemical; conditions: 50 mM ester, 50 mM buffer pH 7.6, 0.1 ml of 50 mg/ml enzyme D
Description: as §1, with “Na3 PO4” for “Na”, “D,” for “B,”, “thioacetyl” for “acetylthio”

[9] = tested on: Protease XIV: from Streptomyces griseus (Enzyme G); experiment: Rates of hydrolysis of the two enantiomers (pH stat), Enzyme G; type: biochemical; conditions: for Rate (rate of hydrolysis): 50 mM ester, 50 mM buffer pH 7.6, 0.1 ml of 50 mg/ml enzyme G
Description: as §1, with “mM, and Na3 PO4 buffer at” for “mM, and Na buffer at”, “solution of protease enzyme G,” for “solution of enzyme B,”, “protease enzyme G, made up” for “of enzyme B, made up”, “for the protease enzyme. The” for “for the enzyme. The”

[10] = tested on: Protease XXIV: bacterial protease (Enzyme H); experiment: Rates of hydrolysis of the two enantiomers (pH stat), Enzyme H; type: biochemical; conditions: for Rate (rate of hydrolysis): 50 mM ester, 50 mM buffer pH 7.6, 0.1 ml of 50 mg/ml Enzyme H
Description: as §1, with “Na3 PO4” for “Na”, “Enzyme H,” for “enzyme B,”

[11] = tested on: Protease XXIII: from Aspergillus oryzae (Enzyme A); experiment: Rates of hydrolysis of the two enantiomers (pH stat), Enzyme A; type: biochemical; conditions: for Rate (rate of hydrolysis): 50 mM ester, 50 mM buffer pH 7.6, 0.1 ml of 50 mg/ml enzyme A
Description: as §1, with “enzyme A,” for “enzyme B,”, “mM Na3 PO4” for “mM Na”

[12] = Solubility by absorbance of saturated solutions at 262 nm; type: physicochemical; conditions: saturated solution, pH 7, 5 mM phosphate buffer, room temperature

With CC(C)Cc1ccc(C(C)C(=O)OCS(=O)(=O)O)cc1 (centres unmarked) [Compound 1, Sodium Salt of 4-Sulfomethyl Ester of 2-(4-Isobutylphenyl)propanoic Acid] the “% CONVERSION” value [1] was 34.0%, the “% e.e.” value ([1]; acid product) was 37.7% and the “% CONVERSION” value [2] was 29.1%. The “% e.e.” value ([2]; acid product) was 44.6%, the “conversion of racemic ester to acid” value [3] was 45% and the conversion [4] was 24%. The “% e.e.” value [5] was 70.7%, the “% CONVERSION” value [6] was 37.9% and the “% e.e.” value ([6]; acid product) was over 99%.
In the case of CC(=O)SC[C@@H](C)C(=O)OCS(=O)(=O)O [Compound 14, Potassium Salt of the Sulfomethyl Ester of D-(-)-S-3-Acetylthio-2-methylpropanoic Acid], the “Rate (rate of hydrolysis)” value [7] is reported as 65 umols/hr/mg, the “Rate (rate of hydrolysis)” value [8] is reported as 27 umols/hr/mg and the “Rate (rate of hydrolysis)” value [9] is reported as 63 umols/hr/mg. The “Rate (rate of hydrolysis)” value [10] was 61 umols/hr/mg and the “Rate (rate of hydrolysis)” value [11] was 5.3 umols/hr/mg.
For CC(=O)SC[C@H](C)C(=O)OCS(=O)(=O)O [Compound 15, Potassium Salt of the Sulfomethyl Ester of L-(+)-S-3-Acetylthio-2-methylpropanoic Acid], the “Rate (rate of hydrolysis)” value [7] was 135 umols/hr/mg, the “Rate (rate of hydrolysis)” value [8] was 29 umols/hr/mg and the “Rate (rate of hydrolysis)” value [9] was 105 umols/hr/mg. For the same compound, the “Rate Ratio L/D” value ([9]; enzyme G, pH 7.6) was 1.7, the “Rate (rate of hydrolysis)” value [10] was 65 umols/hr/mg and the “Rate Ratio L/D” value ([10]; Enzyme H, pH 7.6) was 1.1. For the same compound, the “Rate (rate of hydrolysis)” value [11] was 12 umols/hr/mg and the “Rate Ratio L/D” value ([11]; enzyme A, pH 7.6) was 2.3.
COCCOC(=O)C(C)c1ccc(CC(C)C)cc1 (centres unmarked) [Methoxyethyl ester of ibuprofen] gave a Solubility [12] of 180 µM (≈ 47.6 µg/mL).
